# Reference: patent publication US10772911B2, “Cell free compositions for cellular restoration and methods of making and using same” (Advanced ReGen Medical Technologies, LLC, priority 2013, dated 2020)
# Columns and labels:
# Format in all cases: cell-based
# restored cells = assay: cell morphology in transwell co-culture; settings: co-cultured in the presence of 5 μM manumycin vs absence
# Source text: (§1) Receiver cell samples (i.e., R1, R2, and R3) were individually paired with donor cell samples (i.e., D1, D2, and D3) and the pairs co-cultured in a transwell culture cell for four weeks. The morphology of the cells was studied at 2 weeks into the co-culture and at 4 weeks of co-culture. Gene expression arrays, protein arrays, and telomere length experiments compared freshly defrosted cells from the collection tubes (referred to as the baseline donor cell sample or baseline receiver cell sample) with cells at the 4-week study endpoint (referred to as restored cell samples).
# The nature of the soluble particles passing through the permeable membrane in the transwell co-culture experiments was investigated. Specifically, transwell co-culture experiments were carried out in the presence or absence of manumycin. Manumycin, -[(1S,5S,6R)-5-hydroxy-5-[(1E,3E,5E)-7-[(2-hydroxy-5-oxo-1-cyclopenten-1-yl)amino]-7-oxo-1,3,5-heptatrien-1-yl]-2-oxo-7-oxabicyclo[4.1.0]hept-3-en-3-yl]-2E,4E,6R-trimethyl, 2,4-decadienamide, is an antibiotic that acts a potent and selective farnesytransferase inhibitor. Mannumycin is also known to inhibit the release of exosomes. […] Further support for the role of exosome/microvesicles in mediating the disclosed cellular restoration process is shown in FIG. 12.
# senescence-related genes = assay: quantitative PCR gene array of senescence-related genes; settings: co-cultured in the presence of manumycin vs absence
# Source text: as §1
# (§2) Protein array analyses were carried out using conditioned media from the baseline donor cell sample or baseline receiver cell sample. The conditioned media was mixed with like cellular protein extracts and applied to the custom-designed arrays which consisted of antibody probes for 68 factors linked to cellular aging and senescence, collectively referred to as the senescence-associated secretory factors (SASF). Quantitative PCR gene array analyses were carried out by extracting RNA from the baseline samples or the co-cultured donor and receiver samples. The data presented represents the average metric determined for either the baseline donor cell sample, the baseline receiver cell sample, or the restored cell sample. […]
# [1] = system: senescence-associated secretory factors (SASF); assay: protein array of senescence-associated secretory factors; settings: co-cultured in the presence of manumycin vs absence; FIG. 11
# Source text: as §1, §2
# telomere length = telomere length of restored cell sample; settings: pair R1-D1, presence vs absence of manumycin; FIG. 12
# Source text: In an embodiment, the donor cell sample, receiver cell sample, or both are subjected to at least one analytical technique to characterize the quality of the cell sample. Herein, the “quality” of the cell sample refers to factors used to characterize the cellular health of the sample and includes parameters such as the number and types of cells present in the sample; the ratio of senescent to non-senescent cells in the sample; the extent of expression of a group of genetic and/or protein biomarkers; the average telomere length of the cells in the sample; and the status of the innate immune function of the cells in the sample. Telomere length may be determined using any suitable methodology, for example, terminal restriction fragment (TRF) analysis. Innate immune function may be evaluated using any suitable methodology such as the ^51Cr cytotoxicity release natural killer cell assay. The donor cell sample quality may be an assessment of the ability of the cells in the sample to improve and/or restore one or more cellular functions of the cells in the receiver cell sample.
# Receiver cell samples (i.e., R1, R2, and R3) were individually paired with donor cell samples (i.e., D1, D2, and D3) and the pairs co-cultured in a transwell culture cell for four weeks. The morphology of the cells was studied at 2 weeks into the co-culture and at 4 weeks of co-culture. […]
smiles,measurement,setting,value
"CCCC[C@@H](C)/C=C(C)/C=C(\C)C(=O)NC1=C[C@@](O)(/C=C/C=C/C=C/C(=O)NC2=C(O)CCC2=O)[C@@H]2O[C@@H]2C1=O [manumycin, -[(1S,5S,6R)-5-hydroxy-5-[(1E,3E,5E)-7-[(2-hydroxy-5-oxo-1-cyclopenten-1-yl)amino]-7-oxo-1,3,5-heptatrien-1-yl]-2-oxo-7-oxabicyclo[4.1.0]hept-3-en-3-yl]-2E,4E,6R-trimethyl, 2,4-decadienamide]",morphology of restored cells,restored cells,less robust morphology
same,gene expression of restored cell samples,senescence-related genes,did not display a change in expression levels similar to those observed in the absence of manumycin
same,protein expression levels of restored cell samples,[1],elevated levels of all proteins investigated
same,telomere length of restored cell sample,telomere length,decreased
